From ChEMBL document CHEMBL1146128, “Azolylchromans as a novel scaffold for anticonvulsant activity” (2006) come the findings set out here.

Conditions in all cases: route intraperitoneal
The test system of experiment [1] is Mus musculus. Description: Seizure latency in PTZ-induced lethal convulsions in mice at 5 mg/kg, ip. It is filed as functional.
For experiment [2], the system named is Mus musculus. Put plainly: Hind limb tonic extension in PTZ-induced lethal convulsions in mice at 5 mg/kg, ip. It is filed as functional, Hindlimb.
Experiment [3] relates to Mus musculus. Description: Mortality in PTZ-induced lethal convulsions in mice at 5 mg/kg, ip. It is filed as functional.
The test system of experiment [4] is Mus musculus. Put plainly: Seizure latency in PTZ-induced lethal convulsions in mice at 150 mg/kg, ip. It is filed as functional.
Experiment [5] concerns Mus musculus. Description: Hind limb tonic extension in PTZ-induced lethal convulsions in mice at 150 mg/kg, ip. It is filed as functional, Hindlimb.
Experiment [6] relates to Mus musculus. Description: Mortality in PTZ-induced lethal convulsions in mice at 150 mg/kg, ip. It is filed as functional.

For the molecule `C[C@H]1Oc2ccccc2C(=O)[C@@H]1n1cnnc1` (relative stereo), the Activity with Mus musculus [1] is reported as 7.17 min; in the experiment on Mus musculus [2], 100%; in the experiment with Mus musculus [3], 100%.

With `O/N=C1/c2ccc(Cl)cc2OCC1n1ccnc1` (configuration not stated), the values for the Activity with Mus musculus [1], in the experiment on Mus musculus [2] and in the experiment with Mus musculus [3] were 5.83 min, 100% and 100%, respectively.

For the molecule `C[C@@H]1Oc2ccccc2C(=O)[C@H]1n1ccnc1` (relative stereo), the figures for the Activity in the experiment on Mus musculus [1], with Mus musculus [2] and in the experiment with Mus musculus [3] were 17 min, 100% and 67%, respectively.

Regarding `C[C@@H]1Oc2cc(Cl)ccc2C(=O)[C@H]1n1ccnc1` (relative stereo), the results for the Activity in the experiment on Mus musculus [1], in the experiment with Mus musculus [2] and with Mus musculus [3] were 18.6 min, 67% and 67%, respectively.

Regarding `O/N=C1\c2ccccc2OCC1[n+]1cnc[nH]1` (configuration not stated), the Activity with Mus musculus [1] came to 7.17 min; in the experiment on Mus musculus [2] it was 100%; in the experiment with Mus musculus [3] it was 100%.

As to `O/N=C1/c2ccccc2OCC1n1cncn1` (configuration not stated), the Activity amounted to 4 min in the experiment with Mus musculus [1], 100% in the experiment with Mus musculus [2] and 100% in the experiment on Mus musculus [3].

As for `Cc1oc2ccccc2c(=O)c1-n1cnnc1`, the Activity in the experiment with Mus musculus [1] was 5 min; in the experiment with Mus musculus [2], 100%; in the experiment with Mus musculus [3], 100%.

In the case of `C[C@H]1Oc2cc(Cl)ccc2C(=O)[C@@H]1n1cnnc1` (relative stereo), the Activity was determined as 10 min in the experiment on Mus musculus [1], 83% in the experiment with Mus musculus [2] and 83% with Mus musculus [3].

Take `O=C1c2ccc(Cl)cc2OCC1n1cncn1` (configuration not stated): the figures for the Activity in the experiment on Mus musculus [1], in the experiment on Mus musculus [2] and in the experiment with Mus musculus [3] were 2.5 min, 100% and 100%, respectively.

For `O=C1c2ccccc2OCC1n1ccnc1` (configuration not stated), the Activity in the experiment with Mus musculus [1] was determined as 2 min; with Mus musculus [2], 83%; in the experiment on Mus musculus [3], 83%.

Take `O=C1c2ccccc2OCC1n1cnnc1` (configuration not stated): the Activity worked out at 2.83 min with Mus musculus [1], 100% in the experiment on Mus musculus [2] and 100% in the experiment with Mus musculus [3].

Take `O=C1c2ccc(Cl)cc2OCC1n1cnnc1` (configuration not stated): the Activity came out at 4.67 min in the experiment with Mus musculus [1], 100% in the experiment with Mus musculus [2] and 83% in the experiment with Mus musculus [3].

`O=C1c2ccccc2OCC1n1cncn1` (configuration not stated): the Activity in the experiment with Mus musculus [1] is 22 min; with Mus musculus [2], 17%; in the experiment with Mus musculus [3], 17%.

For `O/N=C1/c2ccc(Cl)cc2OCC1n1cnnc1` (configuration not stated), the Activity came to 2.5 min in the experiment with Mus musculus [1], 100% in the experiment with Mus musculus [2] and 100% in the experiment on Mus musculus [3].

In the case of `O/N=C1\c2ccccc2OCC1n1ccnc1` (configuration not stated), the results for the Activity in the experiment on Mus musculus [1], with Mus musculus [2] and with Mus musculus [3] were 5.5 min, 100% and 100%, respectively.

In the case of `O/N=C1/c2ccccc2OCC1n1ccnc1` (configuration not stated), the Activity with Mus musculus [1] was 7.8 min; in the experiment with Mus musculus [2], 83%; in the experiment on Mus musculus [3], 0%.

Take `CCCC(CCC)C(=O)[O-].[Na+]` [VALPROATE SODIUM]: the Activity with Mus musculus [4] came out at 15.65 min; in the experiment on Mus musculus [5] it was 0%; in the experiment with Mus musculus [6], 0%.

For the molecule `O=C1c2ccc(Cl)cc2OCC1n1ccnc1` (configuration not stated), the Activity with Mus musculus [1] is reported as 23.5 min; in the experiment with Mus musculus [2], 0%; in the experiment on Mus musculus [3], 0%.

Consider `O=c1c(-n2cnnc2)coc2ccccc12`, for which the Activity in the experiment with Mus musculus [1] is 10 min; with Mus musculus [2], 100%; with Mus musculus [3] it was 100%.
